Measured values reported in ChEMBL document CHEMBL1212824, “A type-II kinase inhibitor capable of inhibiting the T315I "gatekeeper" mutant of Bcr-Abl” (J Med Chem, 2010).

What was measured:
cells [1] = conditions: Mus musculus, BaF3
cells [2] = conditions: Mus musculus, BaF3; remark: listed apart in the source
cells [3] = conditions: Mus musculus, BaF3; remark: listed apart in the source
cells [4] = conditions: Mus musculus, BaF3; remark: listed apart in the source
cells [5] = conditions: Mus musculus, BaF3; remark: listed apart in the source
cells [6] = conditions: Mus musculus, BaF3; remark: listed apart in the source
cells [7] = conditions: Mus musculus, BaF3; remark: listed apart in the source
[8] = target: Aurora kinase A (Homo sapiens) (UniProt O14965); assay: Inhibition of human Aurora A at 10 uM
[9] = target: Tyrosine-protein kinase receptor UFO (Homo sapiens) (UniProt P30530); assay: Inhibition of human Axl at 10 uM
[10] = target: Cytoplasmic tyrosine-protein kinase BMX (Homo sapiens) (UniProt P51813); assay: Inhibition of human Bmx at 10 uM
[11] = target: RAF proto-oncogene serine/threonine-protein kinase (Homo sapiens) (UniProt P04049); assay: Inhibition of human c-RAF at 10 uM
[12] = target: Calcium/calmodulin-dependent protein kinase type IV (Homo sapiens) (UniProt Q16566); assay: Inhibition of human CaMK4 at 10 uM
Sequence of Calcium/calmodulin-dependent protein kinase type IV (Homo sapiens) (Q16566 whole entry): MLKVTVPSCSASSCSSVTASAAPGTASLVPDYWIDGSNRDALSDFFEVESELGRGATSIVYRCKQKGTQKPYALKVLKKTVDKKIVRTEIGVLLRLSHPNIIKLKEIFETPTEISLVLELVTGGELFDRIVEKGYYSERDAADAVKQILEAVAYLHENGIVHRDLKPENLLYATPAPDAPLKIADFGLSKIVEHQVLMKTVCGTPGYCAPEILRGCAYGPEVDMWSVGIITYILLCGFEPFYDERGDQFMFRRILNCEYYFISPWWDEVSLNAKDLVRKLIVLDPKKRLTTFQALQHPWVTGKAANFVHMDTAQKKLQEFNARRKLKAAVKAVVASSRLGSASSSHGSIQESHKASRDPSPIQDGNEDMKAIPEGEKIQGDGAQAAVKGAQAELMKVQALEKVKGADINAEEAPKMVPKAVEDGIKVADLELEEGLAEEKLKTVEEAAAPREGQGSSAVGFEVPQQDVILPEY

[13] = target: Cyclin-dependent kinase 1/cyclin B1 (Homo sapiens) (UniProt P06493+P14635); assay: Inhibition of human CDK1/cyclinB at 10 uM; type: protein-complex assay
Sequence of Cyclin-dependent kinase 1/cyclin B1 (Homo sapiens) (P06493 whole entry, looked up): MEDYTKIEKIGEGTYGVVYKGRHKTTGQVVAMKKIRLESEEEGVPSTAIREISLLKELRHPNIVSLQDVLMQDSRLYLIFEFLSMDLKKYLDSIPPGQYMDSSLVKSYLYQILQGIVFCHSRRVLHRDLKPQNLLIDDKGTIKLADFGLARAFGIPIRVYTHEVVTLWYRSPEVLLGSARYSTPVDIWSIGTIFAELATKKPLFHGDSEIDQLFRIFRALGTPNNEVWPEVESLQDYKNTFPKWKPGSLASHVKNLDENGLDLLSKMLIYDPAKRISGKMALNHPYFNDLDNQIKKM
Sequence of Cyclin-dependent kinase 1/cyclin B1 (Homo sapiens) (P14635 whole entry, looked up): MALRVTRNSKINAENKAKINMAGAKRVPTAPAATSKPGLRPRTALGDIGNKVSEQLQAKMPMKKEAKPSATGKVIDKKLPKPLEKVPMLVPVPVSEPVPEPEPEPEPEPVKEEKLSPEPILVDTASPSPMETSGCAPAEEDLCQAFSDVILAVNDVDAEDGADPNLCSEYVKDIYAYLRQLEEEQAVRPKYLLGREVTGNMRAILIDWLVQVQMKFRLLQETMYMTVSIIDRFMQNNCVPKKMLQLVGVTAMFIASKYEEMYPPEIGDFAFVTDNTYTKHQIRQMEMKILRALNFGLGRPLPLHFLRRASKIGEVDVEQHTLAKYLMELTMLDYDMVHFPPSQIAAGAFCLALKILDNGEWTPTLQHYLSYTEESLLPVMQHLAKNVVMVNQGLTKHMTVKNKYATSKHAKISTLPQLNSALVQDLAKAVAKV

[14] = target: Serine/threonine-protein kinase Chk2 (Homo sapiens) (UniProt O96017); assay: Inhibition of human CHK2 at 10 uM
[15] = target: Casein kinase II (Homo sapiens) (UniProt P67870+P68400+P19784); assay: Inhibition of human CK2 at 10 uM; type: protein-complex assay
[16] = target: Tyrosine-protein kinase CSK (Homo sapiens) (UniProt P41240); assay: Inhibition of human CSK at 10 uM
[17] = target: Tyrosine-protein kinase Fes/Fps (Homo sapiens) (UniProt P07332); assay: Inhibition of human Fes at 10 uM
[18] = target: Fibroblast growth factor receptor 3 (Homo sapiens) (UniProt P22607); assay: Inhibition of human FGFR3 at 10 uM
Sequence of Fibroblast growth factor receptor 3 (Homo sapiens) (P22607 23-806 limits assumed): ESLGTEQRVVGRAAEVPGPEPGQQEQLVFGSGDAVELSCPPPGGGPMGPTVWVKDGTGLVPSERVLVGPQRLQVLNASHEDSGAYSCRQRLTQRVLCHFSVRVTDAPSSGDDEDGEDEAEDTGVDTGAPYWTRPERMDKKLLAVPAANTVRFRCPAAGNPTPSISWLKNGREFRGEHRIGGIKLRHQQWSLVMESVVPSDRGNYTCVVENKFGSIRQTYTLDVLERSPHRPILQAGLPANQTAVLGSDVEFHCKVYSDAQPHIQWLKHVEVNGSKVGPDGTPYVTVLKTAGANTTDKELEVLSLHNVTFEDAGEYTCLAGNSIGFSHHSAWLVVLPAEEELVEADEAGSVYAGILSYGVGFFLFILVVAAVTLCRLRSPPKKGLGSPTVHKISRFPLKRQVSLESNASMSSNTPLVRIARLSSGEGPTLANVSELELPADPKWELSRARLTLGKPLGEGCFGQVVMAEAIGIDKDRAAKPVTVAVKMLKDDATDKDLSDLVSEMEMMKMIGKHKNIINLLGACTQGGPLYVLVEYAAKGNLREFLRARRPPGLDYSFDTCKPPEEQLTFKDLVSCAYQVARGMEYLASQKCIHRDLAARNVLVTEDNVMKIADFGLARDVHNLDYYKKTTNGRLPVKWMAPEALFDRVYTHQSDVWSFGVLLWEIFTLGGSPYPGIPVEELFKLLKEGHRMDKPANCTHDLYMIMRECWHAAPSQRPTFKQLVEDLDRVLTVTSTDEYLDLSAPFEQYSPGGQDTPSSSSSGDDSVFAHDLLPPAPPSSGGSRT

[19] = target: Receptor-type tyrosine-protein kinase FLT3 (Homo sapiens) (UniProt P36888); assay: Inhibition of human Flt3 at 10 uM
[20] = target: Glycogen synthase kinase-3 (Homo sapiens) (UniProt P49840+P49841); assay: Inhibition of human GSK3ss at 10 uM; type: protein assay
[21] = target: Inhibitor of nuclear factor kappa-B kinase subunit alpha (Homo sapiens) (UniProt O15111); assay: Inhibition of human IKKalpha at 10 uM
[22] = target: Insulin receptor (Homo sapiens) (UniProt P06213); assay: Inhibition of human IR at 10 uM
[23] = target: Mitogen-activated protein kinase 8 (Homo sapiens) (UniProt P45983); assay: Inhibition of human JNK1alpha1 at 10 uM
[24] = target: Mitogen-activated protein kinase 9 (Homo sapiens) (UniProt P45984); assay: Inhibition of human JNK2alpha2 at 10 uM
[25] = target: Tyrosine-protein kinase Lck (Homo sapiens) (UniProt P06239); assay: Inhibition of human Lck at 10 uM
Sequence of Tyrosine-protein kinase Lck (Homo sapiens) (P06239 2-509 limits assumed): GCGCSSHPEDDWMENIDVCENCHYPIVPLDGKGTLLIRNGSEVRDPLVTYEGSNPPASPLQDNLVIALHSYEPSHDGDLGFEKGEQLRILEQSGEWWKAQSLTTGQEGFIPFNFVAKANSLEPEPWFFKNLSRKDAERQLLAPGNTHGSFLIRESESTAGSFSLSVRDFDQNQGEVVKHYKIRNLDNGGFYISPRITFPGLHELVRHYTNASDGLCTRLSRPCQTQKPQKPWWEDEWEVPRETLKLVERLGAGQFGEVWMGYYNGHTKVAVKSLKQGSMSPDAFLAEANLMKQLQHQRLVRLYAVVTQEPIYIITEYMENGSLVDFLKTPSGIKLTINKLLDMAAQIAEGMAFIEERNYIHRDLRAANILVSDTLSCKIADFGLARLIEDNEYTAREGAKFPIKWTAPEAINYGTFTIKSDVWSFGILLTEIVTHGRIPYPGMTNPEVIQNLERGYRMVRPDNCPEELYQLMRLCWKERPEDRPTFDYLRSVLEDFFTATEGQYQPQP

[26] = target: Mitogen-activated protein kinase 1 (Homo sapiens) (UniProt P28482); assay: Inhibition of human MAPK1 at 10 uM
[27] = target: MAP kinase-activated protein kinase 2 (Homo sapiens) (UniProt P49137); assay: Inhibition of human MAPKAP-K2 at 10 uM
[28] = target: Dual specificity mitogen-activated protein kinase kinase 1 (Homo sapiens) (UniProt Q02750); assay: Inhibition of human MEK1 at 10 uM
[29] = target: Dual specificity mitogen-activated protein kinase kinase 6 (Homo sapiens) (UniProt P52564); assay: Inhibition of human MKK6 at 10 uM
[30] = target: Ribosomal protein S6 kinase beta-1 (Homo sapiens) (UniProt P23443); assay: Inhibition of human p70S6K at 10 uM
[31] = target: Serine/threonine-protein kinase PAK 2 (Homo sapiens) (UniProt Q13177); assay: Inhibition of human PAK2 at 10 uM
Sequence of Serine/threonine-protein kinase PAK 2 (Homo sapiens) (Q13177 whole entry): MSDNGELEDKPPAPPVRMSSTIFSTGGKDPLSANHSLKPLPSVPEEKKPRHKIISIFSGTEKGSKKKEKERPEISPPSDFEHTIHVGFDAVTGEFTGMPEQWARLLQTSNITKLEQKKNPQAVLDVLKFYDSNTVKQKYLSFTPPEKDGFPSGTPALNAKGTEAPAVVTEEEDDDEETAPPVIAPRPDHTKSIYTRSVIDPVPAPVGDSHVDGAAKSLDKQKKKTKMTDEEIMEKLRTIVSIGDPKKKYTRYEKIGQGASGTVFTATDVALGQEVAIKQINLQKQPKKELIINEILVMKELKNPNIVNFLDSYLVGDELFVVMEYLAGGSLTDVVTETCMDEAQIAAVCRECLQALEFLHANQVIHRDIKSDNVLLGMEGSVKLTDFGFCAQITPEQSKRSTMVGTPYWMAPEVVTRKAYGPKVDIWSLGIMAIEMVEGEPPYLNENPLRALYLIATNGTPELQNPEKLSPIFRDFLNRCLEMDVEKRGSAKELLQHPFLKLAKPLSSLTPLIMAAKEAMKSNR

[32] = target: Platelet-derived growth factor receptor alpha (Homo sapiens) (UniProt P16234); assay: Inhibition of human PDGFRalpha at 10 uM
[33] = target: RAC-alpha serine/threonine-protein kinase (Homo sapiens) (UniProt P31749); assay: Inhibition of human PKBalpha at 10 uM
[34] = target: Protein kinase C alpha type (Homo sapiens) (UniProt P17252); assay: Inhibition of human PKCalpha at 10 uM
[35] = target: Protein kinase C theta type (Homo sapiens) (UniProt Q04759); assay: Inhibition of human PKCtheta at 10 uM
[36] = target: Serine/threonine-protein kinase D2 (Homo sapiens) (UniProt Q9BZL6); assay: Inhibition of human PKD2 at 10 uM
Sequence of Serine/threonine-protein kinase D2 (Homo sapiens) (Q9BZL6 whole entry): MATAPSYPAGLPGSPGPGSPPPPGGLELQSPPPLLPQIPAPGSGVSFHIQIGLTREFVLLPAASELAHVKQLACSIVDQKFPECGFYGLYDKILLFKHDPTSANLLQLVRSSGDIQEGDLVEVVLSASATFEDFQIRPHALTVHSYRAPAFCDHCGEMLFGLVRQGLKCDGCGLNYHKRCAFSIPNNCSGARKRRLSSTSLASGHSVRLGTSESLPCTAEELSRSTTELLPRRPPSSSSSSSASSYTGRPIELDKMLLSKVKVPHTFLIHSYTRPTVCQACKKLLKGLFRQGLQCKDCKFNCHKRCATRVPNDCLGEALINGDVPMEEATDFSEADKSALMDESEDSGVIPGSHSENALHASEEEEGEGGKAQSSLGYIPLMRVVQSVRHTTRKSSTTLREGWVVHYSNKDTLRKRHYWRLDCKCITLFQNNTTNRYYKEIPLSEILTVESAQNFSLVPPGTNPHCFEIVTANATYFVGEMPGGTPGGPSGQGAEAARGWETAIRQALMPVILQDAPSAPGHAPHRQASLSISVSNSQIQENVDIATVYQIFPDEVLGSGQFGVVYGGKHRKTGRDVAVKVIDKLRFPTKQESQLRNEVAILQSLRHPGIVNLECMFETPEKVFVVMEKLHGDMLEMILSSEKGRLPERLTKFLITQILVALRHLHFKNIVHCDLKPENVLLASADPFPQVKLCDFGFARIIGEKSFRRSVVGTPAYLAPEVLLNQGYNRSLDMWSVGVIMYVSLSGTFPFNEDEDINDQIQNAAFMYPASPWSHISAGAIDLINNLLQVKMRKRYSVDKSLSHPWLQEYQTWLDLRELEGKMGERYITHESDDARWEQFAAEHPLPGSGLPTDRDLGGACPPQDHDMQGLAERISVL

[37] = target: Rho-associated protein kinase 2 (Homo sapiens) (UniProt O75116); assay: Inhibition of human ROCK-2 at 10 uM
[38] = target: Ribosomal protein S6 kinase alpha-1 (Homo sapiens) (UniProt Q15418); assay: Inhibition of human Rsk1 at 10 uM
[39] = target: Mitogen-activated protein kinase 14 (Homo sapiens) (UniProt Q16539); assay: Inhibition of human SAPK2a at 10 uM
[40] = target: Mitogen-activated protein kinase 11 (Homo sapiens) (UniProt Q15759); assay: Inhibition of human SAPK2b at 10 uM
Sequence of Mitogen-activated protein kinase 11 (Homo sapiens) (Q15759 whole entry): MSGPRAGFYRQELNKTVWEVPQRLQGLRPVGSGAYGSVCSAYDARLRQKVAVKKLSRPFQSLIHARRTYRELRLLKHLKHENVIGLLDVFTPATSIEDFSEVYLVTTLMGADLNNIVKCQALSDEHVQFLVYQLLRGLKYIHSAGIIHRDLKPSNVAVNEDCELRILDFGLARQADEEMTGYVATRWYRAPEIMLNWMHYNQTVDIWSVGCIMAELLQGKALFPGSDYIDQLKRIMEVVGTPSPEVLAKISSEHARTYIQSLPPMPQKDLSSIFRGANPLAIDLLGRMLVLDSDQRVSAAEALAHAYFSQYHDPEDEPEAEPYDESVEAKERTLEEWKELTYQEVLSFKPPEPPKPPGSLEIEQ

[41] = target: Mitogen-activated protein kinase 12 (Homo sapiens) (UniProt P53778); assay: Inhibition of human SAPK3 at 10 uM
[42] = target: Serine/threonine-protein kinase Sgk1 (Homo sapiens) (UniProt O00141); assay: Inhibition of human SGK at 10 uM
[43] = target: Tyrosine-protein kinase SYK (Homo sapiens) (UniProt P43405); assay: Inhibition of human Syk at 10 uM
[44] = target: BDNF/NT-3 growth factors receptor (Homo sapiens) (UniProt Q16620); assay: Inhibition of human TrkB at 10 uM
[45] = target: Tyrosine-protein kinase ZAP-70 (Homo sapiens) (UniProt P43403); assay: Inhibition of human ZAP-70 at 10 uM
[46] = Tmax in BALB/c mouse at 5 mg/kg, iv; type: ADME, organism-based; set-up: dose 5 mg/kg, route intravenous; conditions: in vivo
Mus musculus [47] = assay: Tlast in BALB/c mouse at 5 mg/kg, iv; type: ADME, organism-based; set-up: dose 5 mg/kg, route intravenous; conditions: in vivo
Mus musculus [48] = assay: Tlast in BALB/c mouse at 20 mg/kg, po; type: ADME, organism-based; set-up: dose 20 mg/kg, route oral; conditions: in vivo
Homo sapiens = organism: Homo sapiens; conditions: 10 uM
Mus musculus [49] = organism: Mus musculus; conditions: 10 uM
Mus musculus [50] = organism: Mus musculus; conditions: in vivo, po, 20 mg/kg
COLO 205 = assay: cells; conditions: Homo sapiens
SW-620 = assay: cells; conditions: Homo sapiens
cells [51] = conditions: Homo sapiens, U-87 MG
cells [52] = conditions: Homo sapiens, HEK-293T
in vivo [53] = conditions: BALB/c, mouse, iv, 5 mg/kg
in vivo [54] = conditions: BALB/c, mouse, iv, 5 mg/kg; remark: listed apart in the source
in vivo [55] = conditions: BALB/c, mouse, iv, 5 mg/kg; remark: listed apart in the source
[56] = target: 3-phosphoinositide-dependent protein kinase 1 (Homo sapiens) (UniProt O15530); assay: Inhibition of human PDK1 at 10 uM
cells [57] = conditions: Mus musculus, BaF3; remark: listed apart in the source

CNc1ncc2c(n1)N(C)C(=O)N(c1cc(NC(=O)c3cc(-n4cnc(C)c4)cc(C(F)(F)F)c3)ccc1C)C2
IC50 (cells [1]): < 5 nM | IC50 (cells [2]): < 5 nM | IC50 (cells [3]): 16 nM | IC50 (cells [4]): 15 nM | IC50 (cells [5]): 13 nM | IC50 (cells [6]): < 5 nM | IC50 (cells [7]): < 5 nM

Cc1ccc(Nc2ncc3c(n2)N(C)C(=O)N(c2cc(NC(=O)c4cccc(C(F)(F)F)c4)ccc2C)C3)cn1
inhibition [8]: 31% | inhibition [9]: 69% | inhibition [10]: 98% | inhibition [11]: 100% | inhibition [12]: 0% | inhibition [13]: 3% | inhibition [14]: 12% | inhibition [15]: 6% | inhibition [16]: 100% | inhibition [17]: 98% | inhibition [18]: 100% | inhibition [19]: 69% | inhibition [20]: 59% | inhibition [21]: 69% | inhibition [22]: 89% | inhibition [23]: 97% | inhibition [24]: 99% | inhibition [25]: 99% | inhibition [26]: 68% | inhibition [27]: 0% | inhibition [28]: 58% | inhibition [29]: 100% | inhibition [30]: 92% | inhibition [31]: 45% | inhibition [32]: 62% | inhibition [33]: 7% | inhibition [34]: 51% | inhibition [35]: 22% | inhibition [36]: 77% | inhibition [37]: 2% | inhibition [38]: 95% | inhibition [39]: 95% | inhibition [40]: 98% | inhibition [41]: 35% | inhibition [42]: 0% | inhibition [43]: 98% | inhibition [44]: 100% | inhibition [45]: 6% | Tmax [46]: 1.8 min | Tlast (Mus musculus [47]): 24 h | Tlast (Mus musculus [48]): 24 h | inhibition (Homo sapiens): 49% | inhibition (Mus musculus [49]): 98% | Cmax (Mus musculus [50]): 3.62 µM | IC50 (COLO 205): 5 nM | IC50 (SW-620): 1 nM | IC50 (cells [51]): 5960 nM | IC50 (cells [52]): > 10000 nM | Vd (in vivo [53]): 1.12 L/kg | Cmax (in vivo [54]): 11.7 µM | half-life (in vivo [55]): 3.8 h | inhibition [56]: 0%

Cc1ccc(NC(=O)c2cccc(C(F)(F)F)c2)cc1N1Cc2cnc(Nc3ccccc3)nc2N(C)C1=O
IC50 (cells [1]): < 5 nM | IC50 (cells [3]): 19 nM | IC50 (cells [4]): < 5 nM | IC50 (cells [7]): < 5 nM

Cc1ccc(NC(=O)c2cccc(C(F)(F)F)c2)cc1N1Cc2cnc(N)nc2N(C)C1=O
IC50 (cells [1]): < 5 nM | IC50 (cells [3]): < 5 nM | IC50 (cells [4]): < 5 nM | IC50 (cells [5]): < 5 nM | IC50 (cells [57]): < 5 nM | IC50 (cells [6]): < 5 nM | IC50 (cells [7]): < 5 nM
